Test results taken from US12064418B2, “Conjoint therapies for immunomodulation” (Aurigene Oncology Limited, priority 2017, dated 2024).

How the values were obtained:
MC38 tumor = assay: Tumor growth inhibition in the MC38 syngenic model; assay type: in vivo, mouse (female C57BL/6); settings: MC38 SC model, oral once a day
Experimental: Female C57BL/6 mice bred in-house were used in this efficacy study in the MC38 model. Animals were 6-8 weeks-old and weighed between 13 and 21 g. Animals were marked individually with tail marks and kept in cages that were identified by a cage card showing the study code, date of experimentation, sex and number of animals. During the experiment, the animals were weighed daily.
Tumor cells were cultured according to the procedure explained in the literature (U.S. Pat. No. 9,333,256; A. Filatenkov et al., J. Immunol., 2009. 183(11): 7196-7203). Tumor cells were ensured Mycoplasma free by performing Mycoplasma detection with MYCOALERT®Mycoplasma Detection Kit (Lonza) in accordance with manufacturer instructions. MYCOALERT® Assay is a selective biochemical test that exploits the activity of mycoplasmal enzymes. Viable Mycoplasma would be lysed and enzymes react with MYCOALERT® substrate, catalyzing the conversion of ADP to ATP. […]
MC38 cells were cultured according to the information in published literature (A. Filatenkov et al., J. Immunol., 2009. 183(11): 7196-7203; S. F. Ngiow et al., Cancer Res., 2011. 71(10): 3540-3551). […] Tumor volumes were measured 3 times a week, body weight and clinical signs were monitored every day. […]

CT-26 tumor = assay: Tumor growth inhibition in the CT-26 syngeneic mouse tumor model; assay type: in vivo, mouse (female Balb/c); settings: CT-26 tumor bearing Balb/c mice, vs Vehicle (H2O)
From the text: The purpose of this study is to determine the effect of Cmd 1 and Cmd 32 on growth inhibition (efficacy) in CT-26 tumor bearing mice when administered once daily by oral gavage as single agents or in combination. Cmd 1 and Cmd 32 are small molecule immune modulating agents for treatment of cancer.
Female Balb/c Mice from Charles River Laboratories −20-25 grams; 9-10 weeks old; Strain code: 028.
CT-26 cells were expanded in T225 tissue culture treated flasks in RPMI-1640 medium supplemented with 10% FBS ([…]) and cultured at 37° C. (5% CO2) in a humidified cell culture incubator. Cells were passaged every 3-4 days by detachment with 1× Trypsin/EDTA. Cells were re-plated on 5 flasks in complete RPMI1640 medium.
On the day of implantation, the cells were collected from flasks washed with phosphate buffer solution and detached with Trypsin/EDTA and washed once in phosphate buffer solution with no additives. Cells were resuspended in serum free DMEM at a final concentration of 1×10^6 cells/mL and kept on ice until administered to mice. The cells were kept on ice for no more than 1 hour before administration to the mice. […]
Animals were monitored until tumors were palpable and were then measured until tumor volume reached 100-200 mm^3. […] Tumor cells were counted on a MACSQuant Analyzer with propidium iodide (PI) for live/dead discrimination. […]

[1] = Mortality, body weight and clinical signs in the MC38 study; assay type: in vivo; settings: Cmd 32 10 mg/kg group, one animal, no gross pathology, not reliably attributed to treatment
Experimental: Mortality/morbidity of animals, body weight loss and clinical symptoms were monitored. During study period all moribund animals were sacrificed and animals losing >20% of their body weight were also sacrificed. Body weights were recorded every day and clinical signs of toxicity were recorded once a day. Survival was recorded every day. A 15-20% loss of the body weight and/or animal death was considered as the criteria for toxicity. Behavioural, nesting and gross observations for clinical signs were made at least once every day during the course of the study.
At the end of the study (30 min after the last dose), animals were examined externally for possible abnormalities, weighed and sacrificed by CO2 asphyxiation.

[2] = system: intratumoral T cell populations; assay: Cell-surface marker assays of intratumoral T cell populations in the CT-26 model; assay type: in vivo, mouse (female Balb/c); settings: Cmd 32 50 mg/kg, CT-26 tumors
Experimental: Animals were monitored until tumors were palpable and were then measured until tumor volume reached 100-200 mm^3. They were then randomized into groups using LabCat software and dosing started the following day. Blood was collected in EDTA tubes and kept on ice. Tumor were collected in 15 mL tubes with RPMI-1640 w/10% FBS on ice. Tumors proceeded to the Miltenyi Biotec mouse tumor dissociation kit. Tumor cells were counted on a MACSQuant Analyzer with propidium iodide (PI) for live/dead discrimination. Percent tumor growth inhibition on Day 20 is tabulated below (Table 11). Tumor volume of individual animals on day 20 and the tumor growth over the course of the study are represented in FIG. 1A and FIG. 1B respectively. Cell-surface marker assays were used to identify intratumoral T cell populations and calculate CD8+ (CTL; cytotoxic T-cell): Treg (regulatory T cell) ratio.

SMILES	Percent tumor growth inhibition (TGI) (MC38 tumor; Cmd 32 10 mg/kg, Cmd 1 0 mg/kg) [%]	% TGI (Day 20), percent tumor growth inhibition (CT-26 tumor; Cmd 32 50 mg/kg QD PO) [%]	Mortality [1]	Tumor granzyme-B+/PD-1+/Tim-3+ T cells (percent of CD8) ([2]; FIG. 2B)	Tumor granzyme-B+/PD-1+/Tim-3- T cells (percent of CD8) ([2]; FIG. 2C)	Percent tumor growth inhibition (TGI) (MC38 tumor; Cmd 1 10 mg/kg, Cmd 32 0 mg/kg) [%]	% TGI (Day 20), percent tumor growth inhibition (CT-26 tumor; Cmd 1 100 mg/kg QD PO) [%]
CC(O)[C@H](NC(=O)N[C@@H](CCC(=O)O)c1nc([C@@H](N)CO)no1)C(=O)O (stereo in doubt) [Cmd 32]	10	24	found dead	increase	concomitant decrease		
CC(O)[C@H](NC(=O)N[C@@H](CC(N)=O)c1nc([C@@H](N)CO)no1)C(=O)O (stereo in doubt) [Cmd 1]						25	23
